Results on 13 compounds are retold here after US20260022142A1, “MACROCYCLIC IMMUNOMODULATORS” (Bristol-Myers Squibb Company, priority 2022, published 2026).

As a reminder, the pIC50 is the negative decadic logarithm of the IC50, by convention in mol/L.

pIC50: −log10 of the molar value. Numbered stars: 1 amine (or outer) side, 2 acyl side, 3 side chain; on linkers, the order of the positions; unused ones are H or OH. Bridge positions count the residues as written; N and C are the ends. Square brackets hold non-standard residues; d marks the D form. Peptide text beside a SMILES is read from it. * marks the point of attachment. Bip = N[C@@H](Cc1ccc(-c2ccccc2)cc1)C(=O)O; Phe(3-Me) = Cc1cccc(C[C@H](N)C(=O)O)c1; γGlu = O=C(O)[C@H](CCC(=O)[*:2])N[*:1]; βAsp = O=C(O)[C@H](CC(=O)[*:2])N[*:1]; Cha = N[C@@H](CC1CCCCC1)C(=O)O; Cit = NC(=O)NCCC[C@H](N)C(=O)O; Carboxymethyl = O=C(O)C*; Orn = NCCC[C@H](N)C(=O)O; Aun = NCCCCCCCCCCC(=O)O; Dab = NCC[C@H](N)C(=O)O; Dap = NC[C@H](N)C(=O)O; AEEA = NCCOCCOCC(=O)O

The target of the experiment is T1, PD-1/PD-L1 interaction (PE-labeled human PD-L1-Ig binding to Jurkat cell line over-expressing human PD-1) (Homo sapiens, UniProt Q15116).
T1 construct: expressed in transfected cells; host or cells: Jurkat
T1 sequence (Q15116 25-288): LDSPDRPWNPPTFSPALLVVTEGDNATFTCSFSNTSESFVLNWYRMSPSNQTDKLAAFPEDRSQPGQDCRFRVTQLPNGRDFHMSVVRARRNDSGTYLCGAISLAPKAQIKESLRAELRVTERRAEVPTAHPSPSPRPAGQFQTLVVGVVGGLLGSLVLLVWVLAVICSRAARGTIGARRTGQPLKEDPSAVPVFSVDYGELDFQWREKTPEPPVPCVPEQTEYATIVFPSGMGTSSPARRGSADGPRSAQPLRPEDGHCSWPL
The experiment is described as follows: Jurkat-PD-1 Cell Binding High-Content Screening Assay (CBA). It is filed as cell-based. Particulars: Jurkat cell line over-expressing human PD-1; PE-labeled PD-L1-Ig 20 nM final; read-out: Jurkat hPD1-PDL1 IC50. The method, boiled down:
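Binding of fluorescent PD-L1-Ig (phycoerythrin on Ig tag, 20 nM final, 1 h) measured by high-content imaging of fixed, Hoechst-counterstained Jurkat-hPD-1 cells. Compound added 2 h at 37° C beforehand, in DMEM with 10% fetal calf serum.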
Consider `Cc1cccc(C[C@@H]2NC(=O)[C@H](CC(=O)O)NC(=O)[C@H](Cc3ccc(OCC(=O)O)cc3)NC(=O)[C@H](CN)NC(=O)CSC[C@@H](C(=O)N[C@@H](C)C(=O)N[C@@H](CC(=O)NCCCCCCCCCCC(=O)O)C(=O)O)NC(=O)[C@H]([C@@H](C)O)NC(=O)[C@H](C(C)C)NC(=O)[C@H](CC3CCCCC3)NC(=O)[C@H](CCN)NC(=O)[C@@H](CC(C)C)NC(=O)[C@H](CCCN)NC(=O)[C@H](CCCNC(N)=O)NC(=O)[C@H](Cc3ccc(-c4ccccc4)cc3)NC(=O)[C@H](C(C)C)NC2=O)c1` [Compound 1023] ({CH2CO}-[Dap]Y(Carboxymethyl)D[Phe(3-Me)]V[Bip][Cit][Orn][dL][Dab][Cha]VTCA[βAsp][Aun]-OH; thioether N-14), for which the pIC50 was 8.10.

As for `Cc1cccc(C[C@@H]2NC(=O)[C@H](CC(=O)O)NC(=O)[C@H](Cc3ccc(OCC(=O)O)cc3)NC(=O)[C@H](CN)NC(=O)CSC[C@@H](C(=O)N[C@@H](CCC(=O)NCCCCCCCCCCC(=O)O)C(=O)O)NC(=O)[C@H]([C@@H](C)O)NC(=O)[C@H](C(C)C)NC(=O)[C@H](CC3CCCCC3)NC(=O)[C@H](CCN)NC(=O)[C@@H](CC(C)C)NC(=O)[C@H](CCCN)NC(=O)[C@H](CCCNC(N)=O)NC(=O)[C@H](Cc3ccc(-c4ccccc4)cc3)NC(=O)[C@H](C(C)C)NC2=O)c1` [Compound 1024] ({CH2CO}-[Dap]Y(Carboxymethyl)D[Phe(3-Me)]V[Bip][Cit][Orn][dL][Dab][Cha]VTC[γGlu][Aun]-OH; thioether N-14), the pIC50 is 8.18.

Consider `Cc1cccc(C[C@@H]2NC(=O)[C@H](CC(=O)O)NC(=O)[C@H](Cc3ccc(OCC(=O)O)cc3)NC(=O)[C@H](CN)NC(=O)CSC[C@@H](C(=O)N[C@@H](CC(=O)NCCCCCCCCCCC(=O)O)C(=O)O)NC(=O)[C@H]([C@@H](C)O)NC(=O)[C@H](C(C)C)NC(=O)[C@H](CC3CCCCC3)NC(=O)[C@H](CCN)NC(=O)[C@@H](CC(C)C)NC(=O)[C@H](CCCN)NC(=O)[C@H](CCCNC(N)=O)NC(=O)[C@H](Cc3ccc(-c4ccccc4)cc3)NC(=O)[C@H](C(C)C)NC2=O)c1` [Compound 1025] ({CH2CO}-[Dap]Y(Carboxymethyl)D[Phe(3-Me)]V[Bip][Cit][Orn][dL][Dab][Cha]VTC[βAsp][Aun]-OH; thioether N-14), for which the pIC50 is 7.97.

Regarding `Cc1cccc(C[C@@H]2NC(=O)[C@H](CC(=O)O)NC(=O)[C@H](Cc3ccc(OCC(=O)O)cc3)NC(=O)[C@H](CN)NC(=O)CSC[C@@H](C(=O)N[C@@H](CC(=O)O)C(=O)NCCCCCCCCCCC(=O)O)NC(=O)[C@H]([C@@H](C)O)NC(=O)[C@H](C(C)C)NC(=O)[C@H](CC3CCCCC3)NC(=O)[C@H](CCN)NC(=O)[C@@H](CC(C)C)NC(=O)[C@H](CCCN)NC(=O)[C@H](CCCNC(N)=O)NC(=O)[C@H](Cc3ccc(-c4ccccc4)cc3)NC(=O)[C@H](C(C)C)NC2=O)c1` [Compound 1026] ({CH2CO}-[Dap]Y(Carboxymethyl)D[Phe(3-Me)]V[Bip][Cit][Orn][dL][Dab][Cha]VTCD[Aun]-OH; thioether N-14), the pIC50 was 8.06.

As for `Cc1cccc(C[C@@H]2NC(=O)[C@H](CC(=O)O)NC(=O)[C@H](Cc3ccc(OCC(=O)O)cc3)NC(=O)[C@H](CN)NC(=O)CSC[C@@H](C(=O)N[C@@H](CCC(=O)O)C(=O)NCCCCCCCCCCC(=O)O)NC(=O)[C@H]([C@@H](C)O)NC(=O)[C@H](C(C)C)NC(=O)[C@H](CC3CCCCC3)NC(=O)[C@H](CCN)NC(=O)[C@@H](CC(C)C)NC(=O)[C@H](CCCN)NC(=O)[C@H](CCCNC(N)=O)NC(=O)[C@H](Cc3ccc(-c4ccccc4)cc3)NC(=O)[C@H](C(C)C)NC2=O)c1` [Compound 1027] ({CH2CO}-[Dap]Y(Carboxymethyl)D[Phe(3-Me)]V[Bip][Cit][Orn][dL][Dab][Cha]VTCE[Aun]-OH; thioether N-14), the negative logarithm of the IC50 (pIC50) is 7.77.

`Cc1cccc(C[C@@H]2NC(=O)[C@H](CC(=O)O)NC(=O)[C@H](Cc3ccc(OCC(=O)O)cc3)NC(=O)[C@H](CN)NC(=O)CSC[C@@H](C(=O)N[C@@H](C)C(=O)NCCOCCOCC(=O)NCCCCCCCCCCC(=O)O)NC(=O)[C@H]([C@@H](C)O)NC(=O)[C@H](C(C)C)NC(=O)[C@H](CC3CCCCC3)NC(=O)[C@H](CCN)NC(=O)[C@@H](CC(C)C)NC(=O)[C@H](CCCN)NC(=O)[C@H](CCCNC(N)=O)NC(=O)[C@H](Cc3ccc(-c4ccccc4)cc3)NC(=O)[C@H](C(C)C)NC2=O)c1` [Compound 1029] ({CH2CO}-[Dap]Y(Carboxymethyl)D[Phe(3-Me)]V[Bip][Cit][Orn][dL][Dab][Cha]VTCA[AEEA][Aun]-OH; thioether N-14): the pIC50 is 8.13.

On to `Cc1cccc(C[C@@H]2NC(=O)[C@H](CC(=O)O)NC(=O)[C@H](Cc3ccc(OCC(=O)O)cc3)NC(=O)[C@H](CN)NC(=O)CSC[C@@H](C(=O)NCCOCCOCC(=O)N[C@@H](CCC(=O)NCCCCCCCCCCC(=O)O)C(=O)O)NC(=O)[C@H]([C@@H](C)O)NC(=O)[C@H](C(C)C)NC(=O)[C@H](CC3CCCCC3)NC(=O)[C@H](CCN)NC(=O)[C@@H](CC(C)C)NC(=O)[C@H](CCCN)NC(=O)[C@H](CCCNC(N)=O)NC(=O)[C@H](Cc3ccc(-c4ccccc4)cc3)NC(=O)[C@H](C(C)C)NC2=O)c1` [Compound 1030] ({CH2CO}-[Dap]Y(Carboxymethyl)D[Phe(3-Me)]V[Bip][Cit][Orn][dL][Dab][Cha]VTC[AEEA][γGlu][Aun]-OH; thioether N-14), for which the pIC50 is 8.37.

With `Cc1cccc(C[C@@H]2NC(=O)[C@H](CC(=O)O)NC(=O)[C@H](Cc3ccc(OCC(=O)O)cc3)NC(=O)[C@H](CN)NC(=O)CSC[C@@H](C(=O)NCCOCCOCC(=O)N[C@@H](CC(=O)NCCCCCCCCCCC(=O)O)C(=O)O)NC(=O)[C@H]([C@@H](C)O)NC(=O)[C@H](C(C)C)NC(=O)[C@H](CC3CCCCC3)NC(=O)[C@H](CCN)NC(=O)[C@@H](CC(C)C)NC(=O)[C@H](CCCN)NC(=O)[C@H](CCCNC(N)=O)NC(=O)[C@H](Cc3ccc(-c4ccccc4)cc3)NC(=O)[C@H](C(C)C)NC2=O)c1` [Compound 1031] ({CH2CO}-[Dap]Y(Carboxymethyl)D[Phe(3-Me)]V[Bip][Cit][Orn][dL][Dab][Cha]VTC[AEEA][βAsp][Aun]-OH; thioether N-14), the pIC50 is 8.17.

Turning to `Cc1cccc(C[C@@H]2NC(=O)[C@H](CC(=O)O)NC(=O)[C@H](Cc3ccc(OCC(=O)O)cc3)NC(=O)[C@H](CN)NC(=O)CSC[C@@H](C(=O)NCCOCCOCC(=O)N[C@@H](CC(=O)O)C(=O)NCCCCCCCCCCC(=O)O)NC(=O)[C@H]([C@@H](C)O)NC(=O)[C@H](C(C)C)NC(=O)[C@H](CC3CCCCC3)NC(=O)[C@H](CCN)NC(=O)[C@@H](CC(C)C)NC(=O)[C@H](CCCN)NC(=O)[C@H](CCCNC(N)=O)NC(=O)[C@H](Cc3ccc(-c4ccccc4)cc3)NC(=O)[C@H](C(C)C)NC2=O)c1` [Compound 1032] ({CH2CO}-[Dap]Y(Carboxymethyl)D[Phe(3-Me)]V[Bip][Cit][Orn][dL][Dab][Cha]VTC[AEEA]D[Aun]-OH; thioether N-14), the pIC50 was 8.21.

`Cc1cccc(C[C@@H]2NC(=O)[C@H](CC(=O)O)NC(=O)[C@H](Cc3ccc(OCC(=O)O)cc3)NC(=O)[C@H](CN)NC(=O)CSC[C@@H](C(=O)NCCOCCOCC(=O)N[C@@H](CCC(=O)O)C(=O)NCCCCCCCCCCC(=O)O)NC(=O)[C@H]([C@@H](C)O)NC(=O)[C@H](C(C)C)NC(=O)[C@H](CC3CCCCC3)NC(=O)[C@H](CCN)NC(=O)[C@@H](CC(C)C)NC(=O)[C@H](CCCN)NC(=O)[C@H](CCCNC(N)=O)NC(=O)[C@H](Cc3ccc(-c4ccccc4)cc3)NC(=O)[C@H](C(C)C)NC2=O)c1` [Compound 1033] ({CH2CO}-[Dap]Y(Carboxymethyl)D[Phe(3-Me)]V[Bip][Cit][Orn][dL][Dab][Cha]VTC[AEEA]E[Aun]-OH; thioether N-14): the pIC50 is 8.06.

On to `Cc1cccc(C[C@@H]2NC(=O)[C@H](CC(=O)O)NC(=O)[C@H](Cc3ccc(OCC(=O)O)cc3)NC(=O)[C@H](CN)NC(=O)CSC[C@@H](C(=O)N[C@@H](CCC(=O)NCCOCCOCC(=O)NCCCCCCCCCCC(=O)O)C(=O)O)NC(=O)[C@H]([C@@H](C)O)NC(=O)[C@H](C(C)C)NC(=O)[C@H](CC3CCCCC3)NC(=O)[C@H](CCN)NC(=O)[C@@H](CC(C)C)NC(=O)[C@H](CCCN)NC(=O)[C@H](CCCNC(N)=O)NC(=O)[C@H](Cc3ccc(-c4ccccc4)cc3)NC(=O)[C@H](C(C)C)NC2=O)c1` [Compound 1034] ({CH2CO}-[Dap]Y(Carboxymethyl)D[Phe(3-Me)]V[Bip][Cit][Orn][dL][Dab][Cha]VTC[γGlu][AEEA][Aun]-OH; thioether N-14), for which the pIC50 was 8.18.

Regarding `Cc1cccc(C[C@@H]2NC(=O)[C@H](CC(=O)O)NC(=O)[C@H](Cc3ccc(OCC(=O)O)cc3)NC(=O)[C@H](CN)NC(=O)CSC[C@@H](C(=O)N[C@@H](CC(=O)NCCOCCOCC(=O)NCCCCCCCCCCC(=O)O)C(=O)O)NC(=O)[C@H]([C@@H](C)O)NC(=O)[C@H](C(C)C)NC(=O)[C@H](CC3CCCCC3)NC(=O)[C@H](CCN)NC(=O)[C@@H](CC(C)C)NC(=O)[C@H](CCCN)NC(=O)[C@H](CCCNC(N)=O)NC(=O)[C@H](Cc3ccc(-c4ccccc4)cc3)NC(=O)[C@H](C(C)C)NC2=O)c1` [Compound 1035] ({CH2CO}-[Dap]Y(Carboxymethyl)D[Phe(3-Me)]V[Bip][Cit][Orn][dL][Dab][Cha]VTC[βAsp][AEEA][Aun]-OH; thioether N-14), the pIC50 was 8.05.

Take `Cc1cccc(C[C@@H]2NC(=O)[C@H](CC(=O)O)NC(=O)[C@H](Cc3ccc(OCC(=O)O)cc3)NC(=O)[C@H](CN)NC(=O)CSC[C@@H](C(=O)N[C@@H](CC(=O)O)C(=O)NCCOCCOCC(=O)NCCCCCCCCCCC(=O)O)NC(=O)[C@H]([C@@H](C)O)NC(=O)[C@H](C(C)C)NC(=O)[C@H](CC3CCCCC3)NC(=O)[C@H](CCN)NC(=O)[C@@H](CC(C)C)NC(=O)[C@H](CCCN)NC(=O)[C@H](CCCNC(N)=O)NC(=O)[C@H](Cc3ccc(-c4ccccc4)cc3)NC(=O)[C@H](C(C)C)NC2=O)c1` [Compound 1036] ({CH2CO}-[Dap]Y(Carboxymethyl)D[Phe(3-Me)]V[Bip][Cit][Orn][dL][Dab][Cha]VTCD[AEEA][Aun]-OH; thioether N-14): the pIC50 was 8.17.
